The text below walks through data of patent US10570184B2, “GLP-1/glucagon receptor co-agonists for medical use” (Novo Nordisk A/S, priority 2014, dated 2020).

Starred links: 1 amine or outer side, 2 acyl side, 3 side chain; linkers in the order of their positions; H or OH if unused. Non-standard residues stand in square brackets, D forms with d. Residues, ends and D or L forms follow the SMILES beside them. Groups on a side chain read outwards from the residue. *: point of attachment. C18 diacid = O=C(O)CCCCCCCCCCCCCCCCC(=O)*; γGlu = O=C(O)[C@H](CCC(=O)[*:2])N[*:1]; Ac4c = NC1(C(=O)O)CCC1; AEEA = NCCOCCOCC(=O)O; Aib = CC(C)(N)C(=O)O

The target in the assay is T1, human glucagon receptor (Homo sapiens, UniProt P47871).
T1 construct: expressed in transfected cells; host or cells: membranes of BHK cells, clone BHK hGCGR A3*25
T1 sequence (P47871 26-477): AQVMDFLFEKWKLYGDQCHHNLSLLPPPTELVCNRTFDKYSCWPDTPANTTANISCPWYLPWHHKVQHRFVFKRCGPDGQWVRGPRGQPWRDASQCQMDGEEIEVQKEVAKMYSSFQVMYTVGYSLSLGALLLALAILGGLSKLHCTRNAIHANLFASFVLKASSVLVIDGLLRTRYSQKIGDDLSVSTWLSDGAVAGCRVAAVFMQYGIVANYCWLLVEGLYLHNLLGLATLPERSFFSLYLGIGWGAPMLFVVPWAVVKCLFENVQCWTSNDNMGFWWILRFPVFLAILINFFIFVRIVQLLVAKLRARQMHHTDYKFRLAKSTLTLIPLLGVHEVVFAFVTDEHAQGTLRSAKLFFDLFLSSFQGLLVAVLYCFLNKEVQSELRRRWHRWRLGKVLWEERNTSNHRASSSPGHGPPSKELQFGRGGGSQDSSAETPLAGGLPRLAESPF
Put plainly: Assay (I)(b) glucagon receptor activation, CRE luciferase reporter gene assay in BHK cells. Type of assay: cell-based. The settings on record: without presence of serum albumin; read-out: GlucagonR EC50 (pM), [Assay (I)(b)]. The protocol: The purpose of this example was to test the activity or potency, of the glucagon derivatives of the invention, in vitro. The in vitro potency is the measure of human GLP-1 receptor (GLP-1R) or glucagon receptor (glucagonR) activation, respectively, in a whole cell assay. In vitro potency was determined by measuring the response of human GLP-1 or glucagon receptor, respectively, in a reporter gene assay. The assay was performed in a stably transfected BHK cell line that expresses either the human GLP-1 receptor or the human glucagon receptor and contains the DNA for the cAMP response element (CRE) coupled to a promoter and the gene for firefly luciferase (CRE luciferase). […] When assay incubation was completed, the luciferase substrate (luciferin) was added and the enzyme converted luciferin to oxyluciferin and produces bioluminescence. The luminescence was measured as the readout for the assay. The cells used in this assay (clone pLJ6′-4-25) were BHK cells with BHK570 as a parent cell line expressing the CRE luciferase gene (clone BHK/KZ10-20-48) and were established by further transfection with the human glucagon receptor (clone pLJ6′ in pHZ-1 vector). The cells were cultured at 5% CO2 in DMEM medium with 10% FBS, 1×GlutaMAX, 1 mg/ml G418, 240 nM MTX (methotrexate) and 1% pen/strep (penicillin/streptomycin). They were aliquoted and stored in liquid nitrogen. Before each assay, an aliquot was taken up and washed three times in PBS before being suspended at the desired concentration in assay medium. For 96-well plates the suspension was made to give a final concentration of 5×10EE3 cells/well. The following chemicals were used in the assay: Pluronic F-68 (10%) (Gibco 2404), ovalbumin (Sigma A5503), DMEM w/o phenol red (Gibco 11880-028), 1 M Hepes (Gibco 15630), Glutamax 100× (Gibco 35050) and steadylite plus (PerkinElmer 6016757). Assay Medium consisted of DMEM w/o phenol red, 10 mM Hepes, 1× GlutaMAX, 2% Ovalbumin and 0.2% Pluronic F-68. Cell stocks were thawed in a 37° C. water bath. Cells were washed three times in PBS. The cells were counted and adjusted to 5×10EE3 cells/50 μl (1×10EE5 cells/ml) in Assay Medium. A 50 μl aliquot of cells was transferred to each well in the assay plate. Stocks of the test compounds and reference compounds were diluted to a concentration of […] in Assay Medium. Compounds were diluted 10-fold to give the following concentrations: 2×10EE-6 M, 2×10EE-7 M, 2×10EE-8 M; 2×10EE-9 M, 2×10EE-10 M, 2×10EE-11 M, 2×10EE-12 M and 2×10EE-13 M. For each compound a blank assay medium control was also included. A 50 μl aliquot of compound or blank was transferred from the dilution plate to the assay plate. Compounds were tested at the following final concentrations: 1×10EE-6 M, 1×10EE-7 M, 1×10EE-8 M; 1×10EE-9 M, 1×10EE-10 M, 1×10EE-11 M and 1×10EE-12 M and 1×10EE-13 M. The assay plate was incubated for 3 h in a 5% CO2 incubator at 37° C. The assay plate was removed from the incubator and allowed to stand at room temperature for 15 min. A 100 μl aliquot of steadylite plus reagent was added to each well of the assay plate (reagent is light sensitive). Each assay plate was covered with aluminum foil to protect it from light and shaken for 30 min at room temperature. Each assay plate was read in a Perkin Elmer TopCount NXT instrument. The data from the TopCount instrument was transferred to GraphPad Prism software. The software performed a non-linear regression (log(agonist) vs response-Variable slope (four parameter)). EC50 values were calculated by the software and reported in pM.
Background: In a reporter assay the amount or activity of a reporter protein is the signal.

With `CC[C@H](C)[C@H](NC(=O)[C@H](CC(C)C)NC(=O)[C@H](Cc1c[nH]c2ccccc12)NC(=O)[C@H](CCC(N)=O)NC(=O)[C@@H](NC(=O)[C@H](Cc1ccccc1)NC(=O)[C@H](CCC(=O)O)NC(=O)[C@H](CCC(N)=O)NC(=O)[C@H](C)NC(=O)[C@H](CCCNC(=N)N)NC(=O)[C@H](CCCNC(=N)N)NC(=O)[C@H](CO)NC(=O)[C@H](CCC(=O)O)NC(=O)[C@H](CC(C)C)NC(=O)[C@H](Cc1ccc(O)cc1)NC(=O)[C@H](CCCCN)NC(=O)[C@H](CO)NC(=O)[C@H](CC(C)C)NC(=O)[C@H](CC(=O)O)NC(=O)[C@H](CO)NC(=O)[C@@H](NC(=O)[C@H](Cc1ccccc1)NC(=O)[C@@H](NC(=O)CNC(=O)[C@H](CCC(N)=O)NC(=O)C1(NC(=O)[C@@H](N)Cc2c[nH]cn2)CCC1)[C@@H](C)O)[C@@H](C)O)C(C)C)C(=O)N[C@@H](CCCCNC(=O)CC[C@H](NC(=O)COCCOCCNC(=O)COCCOCCNC(=O)CC[C@H](NC(=O)CC[C@H](NC(=O)CCCCCCCCCCCCCCCCC(=O)O)C(=O)O)C(=O)O)C(=O)O)C(=O)N[C@H](C(N)=O)[C@@H](C)O` [Chem. 38, N^ε28-[(4S)-4-carboxy-4-[[2-[2-[2-[[2-[2-[2-[[(4S)-4-carboxy-4-[[(4S)-4-carboxy-4-(17-carboxyheptadecanoylamino)butanoyl]amino]butanoyl]amino]ethoxy]ethoxy]acetyl]amino]ethoxy]ethoxy]acetyl]amino]butanoyl]-[Acb2,Leu10,Glu15,Glu21,Ile27,Lys28]-Glucagon amide] (H-H[Ac4c]QGTFTSDLSKYLESRRAQEFVQWLIK([γGlu-AEEA-AEEA-γGlu-γGlu-C18 diacid])T-NH2; N-terminus assumed), the EC50 (usually the midpoint of the concentration-response curve) was 12 pM.
For `CC[C@H](C)[C@H](NC(=O)[C@H](CC(C)C)NC(=O)[C@H](Cc1c[nH]c2ccccc12)NC(=O)[C@H](CCCCNC(=O)COCCOCCNC(=O)COCCOCCNC(=O)CC[C@H](NC(=O)CC[C@H](NC(=O)CC[C@H](NC(=O)CCCCCCCCCCCCCCCCC(=O)O)C(=O)O)C(=O)O)C(=O)O)NC(=O)[C@@H](NC(=O)[C@H](Cc1ccccc1)NC(=O)[C@H](CCC(=O)O)NC(=O)[C@H](CCCNC(=N)N)NC(=O)[C@H](C)NC(=O)[C@H](CCCNC(=N)N)NC(=O)[C@H](CCCNC(=N)N)NC(=O)[C@H](C)NC(=O)[C@H](CC(=O)O)NC(=O)[C@H](CC(C)C)NC(=O)[C@H](Cc1ccc(O)cc1)NC(=O)[C@H](CCCCN)NC(=O)[C@H](CO)NC(=O)[C@H](Cc1ccc(O)cc1)NC(=O)[C@H](CC(=O)O)NC(=O)[C@H](CO)NC(=O)[C@@H](NC(=O)[C@H](Cc1ccccc1)NC(=O)[C@@H](NC(=O)CNC(=O)[C@H](CCC(N)=O)NC(=O)C(C)(C)NC(=O)[C@@H](N)Cc1c[nH]cn1)[C@@H](C)O)[C@@H](C)O)C(C)C)C(=O)N[C@@H](CO)C(=O)N[C@H](C(N)=O)[C@@H](C)O` [Chem. 4, N^ε24-[2-[2-[2-[[2-[2-[2-[[(4S)-4-carboxy-4-[[(4S)-4-carboxy-4-[[(4S)-4-carboxy-4-(17-carboxyheptadecanoylamino)butanoyl]amino]butanoyl]amino]butanoyl]amino]ethoxy]ethoxy]acetyl]amino]ethoxy]ethoxy]acetyl]-[Aib2,Ala16,Arg20,Glu21,Lys24,Ile27,Ser28]-Glucagon amide] (H-H[Aib]QGTFTSDYSKYLDARRAREFVK([AEEA-AEEA-γGlu-γGlu-γGlu-C18 diacid])WLIST-NH2; N-terminus assumed), the EC50 stood at 12 pM.
For `CC[C@H](C)[C@H](NC(=O)[C@H](CC(C)C)NC(=O)[C@H](Cc1c[nH]c2ccccc12)NC(=O)[C@H](CCC(N)=O)NC(=O)[C@@H](NC(=O)[C@H](Cc1ccccc1)NC(=O)[C@H](CC(=O)O)NC(=O)[C@H](CCC(N)=O)NC(=O)[C@H](C)NC(=O)[C@H](CCCNC(=N)N)NC(=O)[C@H](CCCNC(=N)N)NC(=O)[C@H](C)NC(=O)[C@H](CC(=O)O)NC(=O)[C@H](CC(C)C)NC(=O)[C@H](Cc1ccc(O)cc1)NC(=O)[C@H](CCCCN)NC(=O)[C@H](CO)NC(=O)[C@H](CC(C)C)NC(=O)[C@H](CC(=O)O)NC(=O)[C@H](CO)NC(=O)[C@@H](NC(=O)[C@H](Cc1ccccc1)NC(=O)[C@@H](NC(=O)CNC(=O)[C@H](CCC(N)=O)NC(=O)C(C)(C)NC(=O)[C@@H](N)Cc1c[nH]cn1)[C@@H](C)O)[C@@H](C)O)C(C)C)C(=O)N[C@@H](CCCCNC(=O)COCCOCCNC(=O)COCCOCCNC(=O)CC[C@H](NC(=O)CC[C@H](NC(=O)CC[C@H](NC(=O)CCCCCCCCCCCCCCCCC(=O)O)C(=O)O)C(=O)O)C(=O)O)C(=O)N[C@H](C(N)=O)[C@@H](C)O` [Chem. 7, N^ε28-[2-[2-[2-[[2-[2-[2-[[(4S)-4-carboxy-4-[[(4S)-4-carboxy-4-[[(4S)-4-carboxy-4-(17-carboxyheptadecanoylamino)butanoyl]amino]butanoyl]amino]butanoyl]amino]ethoxy]ethoxy]acetyl]amino]ethoxy]ethoxy]acetyl]-[Aib2,Leu10,Ala16,Ile27,Lys28]-Glucagon amide] (H-H[Aib]QGTFTSDLSKYLDARRAQDFVQWLIK([AEEA-AEEA-γGlu-γGlu-γGlu-C18 diacid])T-NH2; N-terminus assumed), the EC50 came out at 32 pM.
